In patent US20130184251A1, “HETEROAROMATIC AND AROMATIC PIPERAZINYL AZETIDINYL AMIDES AS MONOACYLGLYCEROL LIPASE INHIBITORS” (Janssen Pharmaceutica, NV, priority 2009, published 2013):
Where two headings read alike, the source gives them in different places.

Experiments:
HeLa cells = experiment: 2-AG accumulation assay using HeLa cells; type: cell-based; conditions: for Emax at 10 µM: Homo sapiens, HeLa cell homogenate, 2-AG accumulation relative to MAFP; for Ex. 5 % MAFP @10 μM: 10 μM compound
Male Sprague Dawley rats [1] = experiment: Chronic constriction injury (CCI)-induced model of neuropathic pain, acetone-induced hypersensitivity; type: in vivo; conditions: HCl salt, 30 mg/kg oral dosing in 20% HPbCD
Text: Male Sprague Dawley rats (225-450 g; n=5-8/treatment) were used to evaluate the ability of selected compounds of the Formula (I) to reverse CCI-induced cold hypersensitivity. Four loose ligatures of 4-0 chromic gut were surgically placed around the left sciatic nerve under inhalation anesthesia as described by Bennett et al (Bennett G J, Xie Y K. Pain 1988, 33(1): 87-107). Fourteen to 35 days following CCI surgery, subjects were placed in elevated observation chambers containing wire mesh floors, and five applications of acetone (0.05 mL/application separated by approximately 5 minutes) were spritzed onto the plantar surface of the paw using a multidose syringe. An abrupt withdrawal or lifting of the paw was considered a positive response. The number of positive responses was recorded for each rat over the five trials. Following baseline withdrawal determinations, compounds of formula (I) were administered in an appropriate vehicle, such as hydroxypropyl-β-cyclodextrin (HP β CD), methylcellulose, Methocel, 10% Solutol, or H2O, or the like, by the appropriate route, i.p. or p.o. The number of withdrawals were re-determined 1 to 4 h after compound administration. Results are presented as a percent inhibition of shakes, which was calculated for each subject as [1-(test compound withdrawals/pre-test withdrawals)]×100 and then averaged by treatment.

Male Sprague Dawley rats [2] = experiment: Visceral hyperalgesia model (colorectal distension, zymosan colitis); type: in vivo; conditions: 30 mg/kg, s.c.; 20 min after dosing; vehicle-treated rats 239.6±28.9% of control
Method: This protocol uses barostat-controlled, isobaric colorectal distensions (CRD) in rats to evaluate the potency and efficacy of test compounds in treating visceral hyperalgesia. Male Sprague Dawley rats, weighing 275-350 g, (Charles River Labs) were housed 2-4/cage in a temperature and humidity controlled room with a 12 h/12 h light/dark cycle and ad libitum access to food and water. One day after release from quarantine, rats were acclimated to progressively longer (30 min and, 4 h later, 45 min) periods of simple restraint in plexiglass devices (G-3, rat ECU; Braintree Scientific; Braintree Mass.). The rats were returned to their home cage overnight. […] The balloon pressure, which represents intracolonic pressure, was continuously recorded. […]
The following morning, colitis was induced by the intracolonic instillation of a 1.5-mL bolus of 2.5% (w/v) zymosan A (from Saccharomyces cerevisiae; Sigma Chemical Co., St. Louis) in 30% ethanol under light 70% CO2: 30% O2 anesthesia. […] The identical CRD stimuli were applied, and manometric VMRs were recorded and analyzed as described for the control phase of the experiment. […] CRD stimuli at 45 mmHg elicited peak responses in the control (pre-zymosan) condition; therefore, the responses of each rat were calculated as a percent of the manometric VMR at that pressure, recorded the day before induction of colitis; thus, each rat served as its own control. […]

rats = experiment: CFA-induced paw radiant heat hypersensitivity; type: in vivo, rat; conditions: HCl salt in 20% HPβCD, treatment time 30 min
Method: Each rat was placed in a test chamber on a thermally controlled glass surface and allowed to acclimate for approximately 10 min. A radiant thermal stimulus (beam of light) was then focused through the glass onto the plantar surface of the hind paw. The thermal stimulus was automatically shut off by a photoelectric relay when the paw was moved or when the cut-off time was reached (20 sec). An initial (baseline) response latency to the thermal stimulus was recorded for each animal prior to the injection of CFA. 24 h following intraplantar CFA injection, the response latency to the thermal stimulus was then re-evaluated and compared to the animal's baseline response time. […] Immediately following the post-CFA latency assessment, test compound or vehicle (usually solutol, hydroxypropyl methylcellulose, hydroxypropyl beta-cyclodextrin or PEG-400) was administered i.p. or p.o. to rats. Post-compound treatment withdrawal latencies were assessed at fixed time intervals, typically 30, 60 and 120 minutes. The percent reversal of hypersensitivity is calculated according to the following formula: % reversal=(post dose latency-predoselatency)/(baseline (pre CFA) latency-predose latency)×100.
Compound #12 (as its corresponding HCl salt) was administered in a solution of 20% HPβCD, at a dose of 30 mg/kg, i.p. and a treatment time of 30 min.

[3] = compound @10 μM (second of two columns with the same head), read-out: Ex. 5 % MAFP @10 μM (second column)
[4] = compound @10 μM as printed (first of two columns with the same head), read-out: Ex. 5 % MAFP @10 μM (first column)
[5] = 2-AG relative to MAFP, HeLa homogenate

Question: Which Emax at 10 µM (HeLa cells; [3]) does the source give for `O=C(c1ccc(-c2ccccc2)cc1)N1CC(N2CCN(c3nccs3)CC2)C1` [compound 36, 1-[1-(Biphenyl-4-ylcarbonyl)azetidin-3-yl]-4-(1,3-thiazol-2-yl)piperazine] here?
Answer: The Emax at 10 µM was 91.3%.

Question: With `CC1(C)CCC(C)(C)c2cc(CCC(=O)N3CC(N4CCN(c5ccccn5)CC4)C3)ccc21` [compound 29, 1-Pyridin-2-yl-4-{1-[3-(5,5,8,8-tetramethyl-5,6,7,8-tetrahydronaphth-2-yl)propanoyl]azetidin-3-yl}piperazine] as the compound, how does the Emax at 10 µM (HeLa cells; [3]) read?
Answer: The Emax at 10 µM was 76.5%.

Question: `O=C(c1ccc(C2CCCCC2)cc1)N1CC(N2CCN(c3nccs3)CC2)C1` [compound 6, 1-{1-[(4-Cyclohexylphenyl)carbonyl]azetidin-3-yl}-4-(1,3-thiazol-2-yl)piperazine] was tested. Which Emax at 10 µM (HeLa cells; [3]) did it give?
Answer: Its Emax at 10 µM is 41.5%.

Question: What about the Emax at 10 µM (HeLa cells; [4]) of the same compound?
Answer: Its Emax at 10 µM is 24.3%.

Question: What does the source list for `O=C(c1ccc2nc(C3CCCCC3)oc2c1)N1CC(N2CCN(c3ccccn3)CC2)C1` [Compound #211]?
Answer: Ex. 5 % MAFP @ 1 μM (HeLa cells; 1 μM compound, 2-AG relative to MAFP, HeLa homogenate): 39.7 % MAFP; Ex. 5 % MAFP @10 μM (HeLa cells; [5]): 100.8 % MAFP

Question: Which results are given for `O=C1c2ccccc2-c2ccc(C(=O)N3CC(N4CCN(c5ccccn5)CC4)C3)cc21` [compound 59, 2-{[3-(4-Pyridin-2-ylpiperazin-1-yl)azetidin-1-yl]carbonyl}-9H-fluoren-9-one]?
Answer: Emax at 10 µM (HeLa cells; [3]): 39.7%; Emax at 10 µM (HeLa cells; [4]): 10.2%

Question: With `COc1ccc(-c2ccc(C(=O)N3CC(N4CCN(c5ncccn5)CC4)C3)cc2)cc1` [compound 5, 2-(4-{1-[(4′-Methoxybiphenyl-4-yl)carbonyl]azetidin-3-yl}piperazin-1-yl)pyrimidine] as the compound, how does the Emax at 10 µM (HeLa cells; [3]) read?
Answer: Its Emax at 10 µM is 98.8%.

Question: For `CCCc1cc2cc(C(=O)N3CC(N4CCN(c5ccccn5)CC4)C3)ccc2n1C` [Compound #213], which “Ex. 5 % MAFP @10 μM” value (HeLa cells; [5]) is on record?
Answer: Its value is 61.1 % MAFP.

Question: How did the “Ex. 5 % MAFP @10 μM” value (HeLa cells; [5]) turn out when `CC(C)Cc1cc2cc(C(=O)N3CC(N4CCN(c5ccccn5)CC4)C3)ccc2n1CC(C)C` [Compound #212] was run?
Answer: Its value is 72.9 % MAFP.

Question: Which results are given for `O=C(c1ccc(-c2ccccc2)cc1)N1CC(N2CCN(c3ncccn3)CC2)C1` [Compound #12, Biphenyl-4-yl-[3-(4-pyrimidin-2-yl-piperazin-1-yl)-azetidin-1-yl]-methanone]?
Answer: Emax at 10 µM (HeLa cells; [3]): 108%; Emax at 10 µM (HeLa cells; [4]): 63.1%; Percent Inhibition (of shakes) (Male Sprague Dawley rats [1]; pretreatment time 1 hr): 57.1%; Percent Inhibition (of shakes) (Male Sprague Dawley rats [1]; pretreatment time 2 hr): 74.3%; Percent Inhibition (of shakes) (Male Sprague Dawley rats [1]; pretreatment time 3 hr): 80.0%; Percent Inhibition (of shakes) (Male Sprague Dawley rats [1]; pretreatment time 4 hr): 48.6%; hyperalgesic response (manometric VMR) to 45 mmHg CRD (Male Sprague Dawley rats [2]): 103.8±22.1 % of control; reversal of hypersensitivity (rats; 30 mg/kg, i.p.): 90.3%; ED50 (rats; Rattus norvegicus, ip, 0.5 h): 0.9 mg/kg

Question: For `CCCCc1ccc(C(=O)N2CC(N3CCN(c4ccccn4)CC3)C2)cc1` [compound 35, 1-{1-[(4-Butylphenyl)carbonyl]azetidin-3-yl}-4-pyridin-2-ylpiperazine], which Emax at 10 µM (HeLa cells; [3]) is on record?
Answer: The Emax at 10 µM was 66.7%.

Question: Which Emax at 10 µM (HeLa cells; [3]) does the source give for `O=C(c1ccc(-c2ccc(Cl)c(Cl)c2)cc1)N1CC(N2CCN(c3ncccn3)CC2)C1` [compound 11, 2-(4-{1-[(3′,4′-Dichlorobiphenyl-4-yl)carbonyl]azetidin-3-yl}piperazin-1-yl)pyrimidine] here?
Answer: Its Emax at 10 µM is 55.2%.

Question: Which Emax at 10 µM (HeLa cells; [3]) does the source give for `O=C(c1ccc(-c2ccccc2)c(F)c1)N1CC(N2CCN(c3ncccn3)CC2)C1` [compound 26, 2-(4-{1-[(2-Fluorobiphenyl-4-yl)carbonyl]azetidin-3-yl}piperazin-1-yl)pyrimidine] here?
Answer: Its Emax at 10 µM is 125%.

Question: Which Emax at 10 µM (HeLa cells; [3]) does the source give for `O=C(c1ccc(-c2ccccc2Cl)cc1)N1CC(N2CCN(c3ncccn3)CC2)C1` [compound 8, 2-(4-{1-[(2′-Chlorobiphenyl-4-yl)carbonyl]azetidin-3-yl}piperazin-1-yl)pyrimidine] here?
Answer: The Emax at 10 µM was 58.3%.
